What was measured:
Assay in all cases: biochemical
Format in all cases: biochemical
[1] = target: T1, 363 human kinases (including Aurora A/B/C) (Homo sapiens, UniProt Q96PF2); details: TSSK2; for remaining activity at 0.1 µM: 100 nM; for remaining activity at 0.1 µM / remaining activity at 0.5 µM: read-out: % Enzyme Activity (relative to DMSO controls)
T1 sequence (Q96PF2 1-358): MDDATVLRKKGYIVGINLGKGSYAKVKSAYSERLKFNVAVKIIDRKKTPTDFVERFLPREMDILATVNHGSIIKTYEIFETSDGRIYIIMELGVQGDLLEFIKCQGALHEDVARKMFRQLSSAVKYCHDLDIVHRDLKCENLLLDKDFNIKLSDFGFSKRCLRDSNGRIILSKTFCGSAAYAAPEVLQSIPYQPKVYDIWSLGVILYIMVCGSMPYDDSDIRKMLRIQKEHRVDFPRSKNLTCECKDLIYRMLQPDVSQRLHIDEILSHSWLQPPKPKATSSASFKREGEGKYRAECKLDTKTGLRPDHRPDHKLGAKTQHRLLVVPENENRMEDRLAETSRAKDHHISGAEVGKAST
Text: (§1) However, the Aurora A/B selectivity ratios derived from our in vitro and in vivo data can be compared to prioritize inhibitors.

[2] = target: T2, 363 human kinases (including Aurora A/B/C) (Homo sapiens, UniProt Q9UHD2); details: TBK1; for remaining activity at 0.1 µM: 100 nM; for remaining activity at 0.1 µM / remaining activity at 0.5 µM: read-out: % Enzyme Activity (relative to DMSO controls)
T2 sequence (Q9UHD2 1-729): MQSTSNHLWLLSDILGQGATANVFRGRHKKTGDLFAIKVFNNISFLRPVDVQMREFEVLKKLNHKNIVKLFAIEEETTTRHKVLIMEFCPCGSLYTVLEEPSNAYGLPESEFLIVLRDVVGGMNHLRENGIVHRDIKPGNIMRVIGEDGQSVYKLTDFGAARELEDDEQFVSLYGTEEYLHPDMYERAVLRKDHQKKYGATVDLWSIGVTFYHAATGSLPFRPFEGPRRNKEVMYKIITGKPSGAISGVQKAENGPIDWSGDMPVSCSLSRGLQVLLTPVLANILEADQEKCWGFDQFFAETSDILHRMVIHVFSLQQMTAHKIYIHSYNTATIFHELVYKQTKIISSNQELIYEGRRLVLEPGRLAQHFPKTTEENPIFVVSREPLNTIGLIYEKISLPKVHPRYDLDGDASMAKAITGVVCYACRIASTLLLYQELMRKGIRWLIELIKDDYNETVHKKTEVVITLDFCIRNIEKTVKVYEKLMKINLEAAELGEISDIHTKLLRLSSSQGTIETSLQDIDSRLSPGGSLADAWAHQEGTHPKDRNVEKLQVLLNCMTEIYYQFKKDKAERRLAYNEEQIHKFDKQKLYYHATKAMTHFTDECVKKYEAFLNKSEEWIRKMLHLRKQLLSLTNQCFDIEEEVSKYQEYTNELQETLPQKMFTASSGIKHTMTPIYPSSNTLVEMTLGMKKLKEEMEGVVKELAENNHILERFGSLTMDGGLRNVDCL
Text: as §1

[3] = target: T3, 363 human kinases (including Aurora A/B/C) (Homo sapiens, UniProt P36896); details: ALK4/ACVR1B, [ATP] 50 µM; for remaining activity at 0.1 µM: 100 nM; for remaining activity at 0.1 µM / remaining activity at 0.5 µM: read-out: % Enzyme Activity (relative to DMSO controls)
T3 sequence (P36896 24-505): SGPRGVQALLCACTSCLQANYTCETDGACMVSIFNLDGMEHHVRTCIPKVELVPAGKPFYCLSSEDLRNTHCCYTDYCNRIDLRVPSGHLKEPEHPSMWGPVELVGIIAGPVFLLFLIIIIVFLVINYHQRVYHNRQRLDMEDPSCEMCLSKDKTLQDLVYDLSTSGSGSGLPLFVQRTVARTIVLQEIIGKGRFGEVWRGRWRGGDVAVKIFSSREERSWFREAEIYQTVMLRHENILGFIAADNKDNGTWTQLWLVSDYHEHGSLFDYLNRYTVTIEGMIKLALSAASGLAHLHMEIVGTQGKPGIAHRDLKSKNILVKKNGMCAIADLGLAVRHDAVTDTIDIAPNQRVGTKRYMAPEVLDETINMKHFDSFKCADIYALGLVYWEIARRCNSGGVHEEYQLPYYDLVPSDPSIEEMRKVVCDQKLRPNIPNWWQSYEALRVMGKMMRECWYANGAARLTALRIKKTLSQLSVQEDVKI
Text: as §1

[4] = target: 363 human kinases (including Aurora A/B/C) (Homo sapiens, UniProt P78368); details: CK1g2, [ATP] 100 µM; for remaining activity at 0.1 µM: 100 nM; for remaining activity at 0.1 µM / remaining activity at 0.5 µM: read-out: % Enzyme Activity (relative to DMSO controls)
Text: as §1

[5] = target: 363 human kinases (including Aurora A/B/C) (Homo sapiens, UniProt Q9Y572); details: RIPK3; for remaining activity at 0.1 µM: 100 nM; for remaining activity at 0.1 µM / remaining activity at 0.5 µM: read-out: % Enzyme Activity (relative to DMSO controls)
Text: as §1

[6] = target: 363 human kinases (including Aurora A/B/C) (Homo sapiens, UniProt P22612); details: PKAcg; for remaining activity at 0.1 µM: 100 nM; for remaining activity at 0.1 µM / remaining activity at 0.5 µM: read-out: % Enzyme Activity (relative to DMSO controls)
Text: as §1

[7] = target: 363 human kinases (including Aurora A/B/C) (Homo sapiens, UniProt P53667); details: LIMK1; for remaining activity at 0.1 µM: 100 nM; for remaining activity at 0.1 µM / remaining activity at 0.5 µM: read-out: % Enzyme Activity (relative to DMSO controls)
Text: as §1

[8] = target: T4, 363 human kinases (including Aurora A/B/C) (Homo sapiens, UniProt Q9UKI8); details: TLK1; for remaining activity at 0.1 µM: 100 nM; for remaining activity at 0.1 µM / remaining activity at 0.5 µM: read-out: % Enzyme Activity (relative to DMSO controls)
T4 sequence (Q9UKI8 1-766): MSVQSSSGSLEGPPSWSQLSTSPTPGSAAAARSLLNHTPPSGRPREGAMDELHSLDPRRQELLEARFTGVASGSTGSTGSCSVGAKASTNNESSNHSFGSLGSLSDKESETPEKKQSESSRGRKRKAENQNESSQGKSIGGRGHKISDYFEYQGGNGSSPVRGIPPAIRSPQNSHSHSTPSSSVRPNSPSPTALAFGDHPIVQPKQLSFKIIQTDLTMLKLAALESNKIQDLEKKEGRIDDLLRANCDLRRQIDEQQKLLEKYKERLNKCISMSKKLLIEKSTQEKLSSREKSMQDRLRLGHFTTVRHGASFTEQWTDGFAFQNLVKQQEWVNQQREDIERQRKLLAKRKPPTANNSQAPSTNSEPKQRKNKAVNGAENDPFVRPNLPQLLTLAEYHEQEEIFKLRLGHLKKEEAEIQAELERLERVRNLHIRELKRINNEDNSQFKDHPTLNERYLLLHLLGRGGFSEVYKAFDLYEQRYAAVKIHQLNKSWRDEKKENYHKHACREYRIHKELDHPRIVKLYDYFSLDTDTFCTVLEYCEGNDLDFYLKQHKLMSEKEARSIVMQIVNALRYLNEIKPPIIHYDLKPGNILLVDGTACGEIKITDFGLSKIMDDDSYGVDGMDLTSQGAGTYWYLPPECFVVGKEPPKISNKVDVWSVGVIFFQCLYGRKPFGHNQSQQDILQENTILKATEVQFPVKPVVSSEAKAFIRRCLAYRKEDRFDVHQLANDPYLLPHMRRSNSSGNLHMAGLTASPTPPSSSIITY
Text: as §1

Chain of 363 human kinases (including Aurora A/B/C) (Homo sapiens, UniProt P53667) (P53667 whole entry): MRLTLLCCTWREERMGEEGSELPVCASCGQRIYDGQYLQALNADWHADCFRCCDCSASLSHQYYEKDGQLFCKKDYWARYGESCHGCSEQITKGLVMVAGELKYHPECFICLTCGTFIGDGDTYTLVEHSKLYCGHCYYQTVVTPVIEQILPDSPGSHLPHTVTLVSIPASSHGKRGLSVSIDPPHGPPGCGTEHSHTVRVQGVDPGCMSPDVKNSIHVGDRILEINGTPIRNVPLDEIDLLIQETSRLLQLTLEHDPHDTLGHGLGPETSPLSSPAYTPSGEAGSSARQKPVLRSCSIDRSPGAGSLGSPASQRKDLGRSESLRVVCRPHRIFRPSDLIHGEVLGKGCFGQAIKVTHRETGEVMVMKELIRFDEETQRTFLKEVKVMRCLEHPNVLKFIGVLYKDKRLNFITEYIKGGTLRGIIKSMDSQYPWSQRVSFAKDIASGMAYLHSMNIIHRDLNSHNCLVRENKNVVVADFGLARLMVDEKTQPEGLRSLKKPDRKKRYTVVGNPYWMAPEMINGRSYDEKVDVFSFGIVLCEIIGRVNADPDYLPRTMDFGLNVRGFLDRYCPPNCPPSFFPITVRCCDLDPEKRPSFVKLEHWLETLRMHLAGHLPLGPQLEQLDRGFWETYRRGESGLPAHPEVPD
Chain of 363 human kinases (including Aurora A/B/C) (Homo sapiens, UniProt P78368) (P78368 whole entry): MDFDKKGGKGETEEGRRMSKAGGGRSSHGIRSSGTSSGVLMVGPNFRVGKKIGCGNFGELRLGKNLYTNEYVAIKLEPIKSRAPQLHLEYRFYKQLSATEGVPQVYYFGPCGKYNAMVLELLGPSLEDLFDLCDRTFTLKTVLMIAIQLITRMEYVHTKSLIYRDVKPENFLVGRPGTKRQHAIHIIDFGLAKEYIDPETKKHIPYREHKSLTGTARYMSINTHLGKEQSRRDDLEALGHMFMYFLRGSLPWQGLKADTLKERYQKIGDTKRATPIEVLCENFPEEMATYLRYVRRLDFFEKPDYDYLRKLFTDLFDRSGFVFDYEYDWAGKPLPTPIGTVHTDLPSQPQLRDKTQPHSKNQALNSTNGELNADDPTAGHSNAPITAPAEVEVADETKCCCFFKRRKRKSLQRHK
Chain of 363 human kinases (including Aurora A/B/C) (Homo sapiens, UniProt P22612) (P22612 whole entry): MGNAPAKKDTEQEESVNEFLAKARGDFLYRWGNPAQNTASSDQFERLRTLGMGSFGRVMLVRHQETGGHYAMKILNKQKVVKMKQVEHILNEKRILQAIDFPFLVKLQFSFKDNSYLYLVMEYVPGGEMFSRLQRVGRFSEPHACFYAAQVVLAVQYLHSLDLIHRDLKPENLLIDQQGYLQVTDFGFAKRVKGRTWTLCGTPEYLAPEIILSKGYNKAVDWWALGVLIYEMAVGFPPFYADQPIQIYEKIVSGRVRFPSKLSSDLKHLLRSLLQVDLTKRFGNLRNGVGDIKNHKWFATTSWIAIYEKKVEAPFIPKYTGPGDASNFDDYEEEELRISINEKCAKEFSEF
Chain of 363 human kinases (including Aurora A/B/C) (Homo sapiens, UniProt Q9Y572) (Q9Y572 whole entry): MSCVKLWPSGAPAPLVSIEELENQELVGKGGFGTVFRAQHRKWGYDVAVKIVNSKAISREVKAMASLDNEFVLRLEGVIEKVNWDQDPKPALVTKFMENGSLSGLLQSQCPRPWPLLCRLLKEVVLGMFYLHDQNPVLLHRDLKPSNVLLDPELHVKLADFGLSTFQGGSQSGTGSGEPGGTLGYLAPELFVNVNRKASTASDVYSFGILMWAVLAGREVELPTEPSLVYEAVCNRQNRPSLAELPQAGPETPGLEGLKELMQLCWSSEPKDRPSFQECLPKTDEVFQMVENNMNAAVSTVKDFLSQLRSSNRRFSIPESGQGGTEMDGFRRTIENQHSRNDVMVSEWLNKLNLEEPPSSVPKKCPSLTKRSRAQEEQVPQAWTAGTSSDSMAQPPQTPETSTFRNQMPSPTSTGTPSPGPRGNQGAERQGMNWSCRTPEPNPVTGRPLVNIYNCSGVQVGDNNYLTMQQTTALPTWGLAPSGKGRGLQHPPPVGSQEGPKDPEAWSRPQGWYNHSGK

SMILES | remaining activity at 0.1 µM [1] [%] | remaining activity at 0.1 µM [2] [%] | remaining activity at 0.1 µM [3] [%] | remaining activity at 0.1 µM [4] [%] | remaining activity at 0.1 µM [5] [%] | remaining activity at 0.1 µM [6] [%] | remaining activity at 0.1 µM [7] [%] | remaining activity at 0.1 µM [8] [%] | remaining activity at 0.5 µM ([1]; 500 nM) [%] | remaining activity at 0.5 µM ([2]; 500 nM) [%] | remaining activity at 0.5 µM ([3]; 500 nM) [%] | remaining activity at 0.5 µM ([4]; 500 nM) [%] | remaining activity at 0.5 µM ([5]; 500 nM) [%] | remaining activity at 0.5 µM ([6]; 500 nM) [%] | remaining activity at 0.5 µM ([7]; 500 nM) [%] | remaining activity at 0.5 µM ([8]; 500 nM) [%] | also measured
CCn1cc(-c2ccnc3[nH]c(-c4cccc(CN(C)C)c4)cc23)c(-c2ccc(NC(=O)N(C)C)cc2)n1 [GSK1070916] | 99.9 | 93.7 | 102 | 89.5 | 88.3 | 102 | 96.8 | 120 | – | – | – | – | – | – | – | – | –
O=C(O)[C@]1(Cc2cccc(Nc3nccs3)n2)CC[C@@H](Oc2cccc(Cl)c2F)CC1 [MK-5108] | 103 | 108 | 106 | 107 | 122 | 89.9 | 96.9 | 95.7 | 91.5 | 88.6 | 92.9 | 80.2 | 87.7 | 103 | 69 | 116 | –
O=C(c1cccc(Cl)c1F)N1CCN(Cc2cccc(Nc3nccs3)n2)CC1 [MK-8745] | – | – | – | – | – | – | – | – | 94.7 | 105 | 137 | 87.5 | 94.8 | 97.7 | 101 | 125 | % Enzyme Activity (relative to DMSO controls) ([1]; 500 nM): 93.76%; % Enzyme Activity (relative to DMSO controls) ([2]; 500 nM): 102.60%; % Enzyme Activity (relative to DMSO controls) ([3]; 500 nM): 133.43%; % Enzyme Activity (relative to DMSO controls) ([4]; 500 nM): 86.46%; % Enzyme Activity (relative to DMSO controls) ([5]; 500 nM): 90.81%; % Enzyme Activity (relative to DMSO controls) ([6]; 500 nM): 97.46%; % Enzyme Activity (relative to DMSO controls) ([7]; 500 nM): 99.25%; % Enzyme Activity (relative to DMSO controls) ([8]; 500 nM): 119.91%

From PMC4685510, “A Cell Biologist’s Field Guide to Aurora Kinase Inhibitors” (Frontiers in Oncology, 2015)
